Columns and labels:
[1] = CDK2/CycE Kinase Assay: Method 2: Recombinant fusion proteins of GST and human CDK2 and of GST and human CycE, expressed in insect cells (Sf9) and purified by Glutathion-Sepharose affinity chromatography, were purchased from ProQinase GmbH (Freiburg, Germany). As substrate for the kinase reaction biotinylated peptide biotin-Ttds-[…] (C-terminus in amid form) was used which can be purchased e.g. form the company JERINI Peptide Technologies (Berlin, Germany).For the assay 50 nl of a 100 fold concentrated solution of the test compound in DMSO was pipetted into a black low volume 384 well microtiter plate (Greiner Bio-One, Frickenhausen, Germany), 2 ul of a solution of CDK2/CycE in aqueous assay buffer [50 mM Tris/HCl pH 8.0, 10 mM MgCl2, 1.0 mM dithiothreitol, 0.1 mM sodium ortho-vanadate, 0.01% (v/v) Nonidet-P40 (Sigma)] were added and the mixture was incubated for 15 min at 22° C. to allow pre-binding of the test compounds to the enzyme before the start of the kinase reaction. […] The concentration of CDK2/CycE was adjusted depending of the activity of the enzyme lot and was chosen appropriate to have the assay in the linear range, typical concentrations were in the range of 130 ng/ml. […]
[2] = (§1) CDK9/CycT1 High ATP Kinase Assay: Method 1b: Recombinant full-length His-tagged human CDK9 and CycT1, expressed in insect cells and purified by Ni-NTA affinity chromatography, were purchase from Invitrogen (Cat. No PV4131). As substrate for the kinase reaction biotinylated peptide biotin-Ttds-[…] (C-terminus in amid form) was used which can be purchased e.g. form the company JERINI peptide technologies (Berlin, Germany).For the assay 50 nl of a 100 fold concentrated solution of the test compound in DMSO was pipetted into a black low volume 384 well microtiter plate (Greiner Bio-One, Frickenhausen, Germany), 2 ul of a solution of CDK9/CycT1 in aqueous assay buffer [50 mM Tris/HCl pH 8.0, 10 mM MgCl2, 1.0 mM dithiothreitol, 0.1 mM sodium ortho-vanadate, 0.01% (v/v) Nonidet-P40 (Sigma)] were added and the mixture was incubated for 15 min at 22° C. to allow pre-binding of the test compounds to the enzyme before the start of the kinase reaction. […] The concentration of CDK9/CycT1 was adjusted depending of the activity of the enzyme lot and was chosen appropriate to have the assay in the linear range, typical concentrations were in the range of 0.5 ug/ml. […]
[3] = as §1, with “CDK9/CycT1” for “CDK9/CycT1 High ATP”, “Method 1a:” for “Method 1b:”, “were purchased” for “were purchase”, “JERINI Peptide Technologies” for “JERINI peptide technologies”, “of 1” for “of 0.5”

Compound | IC50 [1] [nM] | IC50 [2] [nM] | IC50 [3] [nM]
C[S@](=N)(=O)Cc1cc(Nc2ncc(F)c(-c3ccc(F)cc3F)n2)cc(C(F)(F)F)c1 | 630 | 231 | 13
C[S@@](=N)(=O)Cc1cc(Nc2ncc(F)c(-c3ccc(F)cc3F)n2)cc(C(F)(F)F)c1 | 780 | 235 | 11
